The values below come from US8058276B2, “Heterobicyclic carboxamides as inhibitors for kinases” (Novartis AG, priority 2006, dated 2011).

In general, melting point refers to the temperature, or range, at which the solid turns liquid.

Structures are written as SMILES.

`Nc1nccc(Oc2ccc3c(C(=O)Nc4ccc(F)c(C(F)(F)F)c4)nsc3c2)n1` [Example 6, 6-(2-Amino-pyrimidin-4-yloxy)-benzo[d]isothiazole-3-carboxylic acid (4-fluoro-3-trifluoromethyl-phenyl)-amide] displayed a melting point of 237 to 239 °C. `CN1CCN(Cc2ccc(NC(=O)c3nsc4cc(Oc5ccnc(N)n5)ccc34)cc2C(F)(F)F)CC1` [Example 7, 6-(2-Amino-pyrimidin-4-yloxy)-benzo[d]isothiazole-3-carboxylic acid [4-(4-methyl-piperazin-1-ylmethyl)-3-trifluoromethyl-phenyl]-amide] yielded a melting point of 215 to 217 °C. Then `Nc1nccc(Oc2ccc3c(C(=O)Nc4cccc(C(F)(F)F)c4)cnn3c2)n1` [Example 15, 6-(2-Amino-pyrimidin-4-yloxy)-pyrazolo[1,5-a]pyridine-3-carboxylic acid (3-trifluoromethyl-phenyl)-amide], with 102 to 104 °C; and `O=C(Nc1ccc(F)c(C(F)(F)F)c1)c1csc2cc(Oc3cc(CO)ncn3)ccc12` [Example 19, 6-(6-Hydroxymethyl-pyrimidin-4-yloxy)-benzo[b]thiophene-3-carboxylic acid (4-fluoro-3-trifluoromethyl-phenyl)-amide], with 138 to 140 °C. Turning to `O=C(Nc1cccc(C(F)(F)F)c1)c1coc2cc(Oc3cc(CO)ncn3)ccc12` [Example 22, 6-(6-Hydroxymethyl-pyrimidin-4-yloxy)-benzofuran-3-carboxylic acid (3-trifluoromethyl-phenyl)-amide], the melting point was in the range of 181 to 182 °C.
